The results in this text go back to patent US20260241049A1, “Radiopharmaceutical Compositions Targeting Glypican-3 and Uses Thereof” (RayzeBio, Inc., priority 2023, published 2026).

Starred links: 1 amine or outer side, 2 acyl side, 3 side chain; linkers in the order of their positions; H or OH if unused. Positions of bridges follow the written chain, without caps; N, C: chain ends. Non-standard residues stand in square brackets, D forms with d. Residues, ends and D or L forms follow the SMILES beside them. Groups on a side chain read outwards from the residue. Primed or numbered codes have the meaning given here. *: point of attachment. MeHseMe″ = (2S)-4-methoxy-2-(methylamino)butanoic acid (N-methyl-O-methyl-L-homoserine), COCC[C@@H](C(=O)[*:2])N(C)[*:1]; F4aao = 4-(carboxymethoxy)-L-phenylalanine, O=C([C@H](Cc1ccc(OCC(=O)[*:3])cc1)N[*:1])[*:2]; MeHseMe = N-methyl-O-methyl-L-homoserine, COCC[C@@H](C(=O)[*:2])N(C)[*:1]; Phe(4-(1-Me-pyrazol-4-yl)) = Cn1cc(-c2ccc(C[C@H](N)C(=O)O)cc2)cn1; SulfoCy5″ = sulfo-Cyanine5 hexanoyl dye as amide on the lysine NZ; TMe = O-methyl-L-threonine, CO[C@H](C)[C@H](N[*:1])C(=O)[*:2]; NMeAla(isoquinolin-7-yl) = CN[C@@H](Cc1ccc2ccncc2c1)C(=O)O; SulfoCy5(3) = sulfo-Cyanine5 hexanoyl dye on the lysine NZ; Phe(4-CH2COOH) = N[C@@H](Cc1ccc(CC(=O)O)cc1)C(=O)O; X2 = CN([C@@H](CC1CCN(CC(=O)O)CC1)C(=O)[*:2])[*:1]; 3Pal(6-Ph) = N[C@@H](Cc1ccc(-c2ccccc2)nc1)C(=O)O; Phe(4-COOH) = N[C@@H](Cc1ccc(C(=O)O)cc1)C(=O)O; Piperazinyl(4-CH2COOH) = O=C(O)CN1CCN(*)CC1; NMe2Nal = CN[C@@H](Cc1ccc2ccccc2c1)C(=O)O; X1 = CO[C@@H](O)[C@H](N[*:1])C(=O)[*:2]; AEF = NCCOc1ccc(C[C@H](N)C(=O)O)cc1; NMeI = CC[C@H](C)[C@H](NC)C(=O)O; NMeQ = CN[C@@H](CCC(N)=O)C(=O)O; NMehSer = CN[C@@H](CCO)C(=O)O; NMeK = CN[C@@H](CCCCN)C(=O)O; NMeDap = CN[C@@H](CN)C(=O)O; NMeC = CN[C@@H](CS)C(=O)O; NMeA = CN[C@@H](C)C(=O)O; CO = O=C([*:1])[*:2]

One assay concerns the target Human Glypican3-Fc (Homo sapiens, UniProt P51654). Description: SPR binding to Glypican-3, Method B-3 (Glypican3-Fc captured on Protein A chip, 5-point dilution series). To be noted: SPR method B-3. As for the experimental part:
A Protein A sensor chip (Cytiva) was inserted into a Biacore T200 (Cytiva), priming was performed three times with a running buffer: HBS-P+, pH 7.4 (Cytiva), and equilibration was carried out at a flow rate of 30 μL/min. Glypican3-Fc was allowed to react for 60 seconds at a flow rate of 10 μL/min. After capturing human Glypican3-Fe, a peptide solution prepared to 10 mM in DMSO solution was diluted with a running buffer to a final concentration of 10 μM. After that, 5 serial dilution series (100 nM, 50 nM, 25 nM, 10 nM, 5 nM) of peptide solutions were prepared. Using the above samples, peptide kinetics for Glypican3 was obtained by SPR measurement. Kinetics evaluation of Glypican3 was performed by SPR measurements at a flow rate of 10 LL/min, setting the association time to 120 seconds and the disassociation time to 600 seconds.
The obtained data by Method B-1, Method B-2, Method B-3 and Method B-4 were analyzed by follow. Single Cycle Kinetics was used as the kinetics evaluation model, and curve fitting was performed using Biacore T200 Evaluation Software Version 3.0 (Cytiva).
As to `CC[C@H](C)[C@@H]1NC(=O)[C@H]([C@@H](C)OC)NC(=O)[C@H](Cc2ccc(C(=O)O)cc2)NC(=O)[C@H](CNC(=O)N2CCN(CC(=O)O)CC2)N(C)C(=O)[C@H](CC(=O)O)NC(=O)[C@H](CCOC)N(C)C(=O)[C@H](CCCCNC(=O)N2CCN(CC(=O)O)CC2)N(C)C(=O)SCC[C@@H](C(N)=O)N(C)C(=O)[C@H](Cc2ccc(-c3ccccc3)nc2)NC(=O)CNC(=O)[C@H](Cc2ccc3ccncc3c2)N(C)C(=O)[C@H](Cc2ccc(OCCN)cc2)NC1=O` [Conjugate 2-38], the Kd was determined as 1.8 nM. This counts as single-digit nanomolar.
The molecule `CC[C@H](C)[C@@H]1NC(=O)[C@H]([C@@H](C)OC)NC(=O)[C@H](Cc2ccc(C(=O)O)cc2)NC(=O)[C@H](CCCCNC(=O)N2CCN(CC(=O)O)CC2)N(C)C(=O)[C@H](CC(=O)O)NC(=O)[C@H](CCCCNC(=O)N2CCN(CC(=O)O)CC2)N(C)C(=O)[C@H](CCCCN)N(C)C(=O)CSC[C@@H](C(N)=O)N(C)C(=O)[C@H](Cc2ccc(-c3ccccc3)nc2)NC(=O)CNC(=O)[C@H](Cc2ccc3ccncc3c2)N(C)C(=O)[C@H](Cc2ccc(OCC(=O)N3CCN(CC(=O)O)CC3)cc2)NC1=O` [Conjugate 2-32] came in with a Kd of 1.8 nM. This lies in the single-digit nanomolar range.
`CC[C@H](C)[C@@H]1NC(=O)[C@H](Cc2ccc(C(=O)O)cc2)NC(=O)[C@H](CCC(N)=O)N(C)C(=O)[C@H](CC(=O)O)NC(=O)[C@H]([C@@H](C)CC)N(C)C(=O)[C@H](CCCCNC(C)=O)N(C)C(=O)CSC[C@@H](C(N)=O)N(C)C(=O)[C@H](Cc2ccc(-c3ccccc3)nc2)NC(=O)CNC(=O)[C@H](Cc2ccc3ccncc3c2)N(C)C(=O)[C@H](Cc2ccc(O)cc2)NC(=O)[C@H]([C@@H](C)CC)NC1=O` [Conjugate 2-4] ({CH2CO}-[NMeK](Ac)[NMeI]D[NMeQ][Phe(4-COOH)]IIY[NMeAla(isoquinolin-7-yl)]G[3Pal(6-Ph)][NMeC]-NH2; thioether N-12) returned a Kd of 0.3 nM.
Molecule `CC[C@H](C)[C@@H]1NC(=O)[C@H](Cc2ccc(C(=O)O)cc2)NC(=O)[C@H](CCC(N)=O)N(C)C(=O)[C@H](CC(=O)O)NC(=O)[C@H](CCC(N)=O)N(C)C(=O)[C@H](CCC(N)=O)N(C)C(=O)CSC[C@@H](C(N)=O)N(C)C(=O)[C@H](Cc2ccc(-c3cnn(C)c3)cc2)NC(=O)CNC(=O)[C@H](Cc2ccc3ccccc3c2)N(C)C(=O)[C@H](Cc2ccc(OCCN)cc2)NC(=O)[C@H]([C@@H](C)CC)NC1=O` [Conjugate 2-53] ({CH2CO}-[NMeQ][NMeQ]D[NMeQ][Phe(4-COOH)]II[AEF][NMe2Nal]G[Phe(4-(1-Me-pyrazol-4-yl))][NMeC]-NH2; thioether N-12) yielded a dissociation constant (Kd) of 1 nM.
In turn, `CC[C@H](C)[C@@H]1NC(=O)[C@H]([C@@H](C)OC)NC(=O)[C@H](Cc2ccc(C(=O)O)cc2)NC(=O)[C@H](CCC(N)=O)N(C)C(=O)[C@H](CC(=O)O)NC(=O)[C@H](CCOC)N(C)C(=O)[C@H](CCCCN)N(C)C(=O)CSC[C@@H](C(N)=O)N(C)C(=O)[C@H](Cc2ccc(-c3ccccc3)nc2)NC(=O)CNC(=O)[C@H](Cc2ccc3ccncc3c2)N(C)C(=O)[C@H](Cc2ccc(O)cc2)NC1=O` [Conjugate 1] ({CH2CO}-[NMeK][NMehSer](Me)D[NMeQ][Phe(4-COOH)]T(Me)IY[NMeAla(isoquinolin-7-yl)]G[3Pal(6-Ph)][NMeC]-NH2; thioether N-12) came in with a Kd of 0.2 nM.
The molecule `CC[C@H](C)[C@@H]1NC(=O)[C@H]([C@@H](C)OC)NC(=O)[C@H](Cc2ccc(C(=O)O)cc2)NC(=O)[C@H](CNC(=O)N2CCN(CC(=O)O)CC2)N(C)C(=O)[C@H](CC(=O)O)NC(=O)[C@H](CCCCNC(=O)N2CCN(CC(=O)O)CC2)N(C)C(=O)[C@H](CCCCN)N(C)C(=O)CSC[C@@H](C(N)=O)N(C)C(=O)[C@H](Cc2ccc(-c3ccccc3)nc2)NC(=O)CNC(=O)[C@H](Cc2ccc3ccncc3c2)N(C)C(=O)[C@H](Cc2ccc(OCC(=O)O)cc2)NC1=O` [Conjugate 2-29] showed a Kd of 1 nM.
In the case of `CC[C@H](C)[C@@H]1NC(=O)[C@H]([C@H](O)OC)NC(=O)[C@H](Cc2ccc(C(=O)O)cc2)NC(=O)[C@H](CCC(N)=O)N(C)C(=O)[C@H](CC(=O)O)NC(=O)[C@H](CCOC)N(C)C(=O)[C@H](CCCCNC(=O)N2CCN(CC(=O)O)CC2)N(C)C(=O)CSC[C@@H](C(N)=O)N(C)C(=O)[C@H](Cc2ccc(-c3ccccc3)nc2)NC(=O)CNC(=O)[C@H](Cc2ccc3ccncc3c2)N(C)C(=O)[C@H](Cc2ccc(O)cc2)NC1=O` [Conjugate 2-25] ({CH2CO}-[NMeK]([CO-Piperazinyl(4-CH2COOH)])[NMehSer](Me)D[NMeQ][Phe(4-COOH)][X1]IY[NMeAla(isoquinolin-7-yl)]G[3Pal(6-Ph)][NMeC]-NH2; thioether N-12), the Kd was found to be 6.6 nM.
For `CC[C@H](C)[C@@H]1NC(=O)[C@H]([C@@H](C)OC)NC(=O)[C@H](Cc2ccc(C(=O)O)cc2)NC(=O)[C@H](CNC(=O)N2CCN(CC(=O)O)CC2)N(C)C(=O)[C@H](CC(=O)O)NC(=O)[C@H](CCOC)N(C)C(=O)[C@H](CNC(=O)N2CCN(CC(=O)O)CC2)N(C)C(=O)CSC[C@@H](C(N)=O)N(C)C(=O)[C@H](Cc2ccc(-c3ccccc3)nc2)NC(=O)CNC(=O)[C@H](Cc2ccc3ccccc3c2)N(C)C(=O)[C@H](Cc2ccc(OCCN)cc2)NC1=O` [Conjugate 2-33] ({CH2CO}-[NMeDap]([CO-Piperazinyl(4-CH2COOH)])[NMehSer](Me)D[NMeDap]([CO-Piperazinyl(4-CH2COOH)])[Phe(4-COOH)]T(Me)I[AEF][NMe2Nal]G[3Pal(6-Ph)][NMeC]-NH2; thioether N-12 (inferred)), binding was characterised by a dissociation constant (Kd) of 0.3 nM. Compared with the last molecule, the Kd is about 22-fold lower.
For the molecule `CC[C@H](C)[C@@H]1NC(=O)[C@H]([C@@H](C)OC)NC(=O)[C@H](Cc2ccc(C(=O)O)cc2)NC(=O)[C@H](CC2CCN(CC(=O)O)CC2)N(C)C(=O)[C@H](CC(=O)O)NC(=O)[C@H](CCC(N)=O)N(C)C(=O)[C@H](CCCCN)N(C)C(=O)CSC[C@@H](C(N)=O)N(C)C(=O)[C@H](Cc2ccc(-c3cnn(C)c3)cc2)NC(=O)CNC(=O)[C@H](Cc2ccc3ccccc3c2)N(C)C(=O)[C@H](Cc2ccc(CC(=O)O)cc2)NC1=O` [Conjugate 2-51] ({CH2CO}-[NMeK][NMeQ]D[X2][Phe(4-COOH)]T(Me)I[Phe(4-CH2COOH)][NMe2Nal]G[Phe(4-(1-Me-pyrazol-4-yl))][NMeC]-NH2; thioether N-12), the Kd was 2.5 nM.

For another assay, the target named is T1, Human Glypican3-Fc (ACRO Biosystems, GP3-H5258) (human, UniProt P51654 25-559).
T1 construct: Bought fusion protein, captured in Methods B-2, B-3 and B-4; Catalogue number is printed only in Method B-2; not shown: Fc part of the bought fusion
The experiment in a line: SPR (Biacore T200), Method B-3: Glypican3-Fc captured on Protein A chip, peptide as analyte.
Details: not given
In short, it runs like this: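 Human Glypican3-Fc was captured on a Protein A chip (60 s, 10 μL/min) in HBS-P+ pH 7.4. The peptide was injected as analyte at a final 10 μM at 10 μL/min, with 120 s association and 600 s dissociation. Kinetics were fitted by single-cycle kinetics.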
Regarding {CH2CO}-[NMeA][MeHseMe″]D[NMeQ][Phe(4-COOH)][TMe]I[AEF][NMe2Nal]G[3Pal(6-Ph)][NMeC]-NH2 (thioether N-12; not fully specified (residue 8)) [Mod3], the Kd is 0.9 nM.
As for {CH2CO}-[NMeK](SulfoCy5(3))[MeHseMe]D[NMeQ][Phe(4-COOH)][TMe]I[F4aao][NMeAla(isoquinolin-7-yl)]G[3Pal(6-Ph)][NMeC]-NH2 (thioether N-12) [Mod7], the Kd came to 4.2 nM.
Molecule {CH2CO}-[NMeK](SulfoCy5″)[NMeI]D[NMeQ][Phe(4-COOH)][TMe]I[F4aao][NMeAla(isoquinolin-7-yl)]G[3Pal(6-Ph)][NMeC]-NH2 (thioether N-12) [PLD-30] yielded a Kd of 1.08 nM. Against the preceding molecule, the Kd is about 3.9-fold lower.
